Patent US11186606B2, “Compositions and methods of modulating the immune response by activating alpha protein kinase 1” (Shanghai Yao Yuan Biotechnology Co., Ltd., priority 2017, dated 2021)

Molecular target: ALPK1 (Homo sapiens, UniProt Q96QP1)
Assay: IL-8 and TNFα mRNA expression in HEK293 cells with control or ALPK1-directed siRNA
Assay type: cell-based
Set-up: ALPK1-directed small interfering RNA (siRNA) to silence ALPK1 expression in HEK293 cells; endogenous in cells; host or cells: HEK293
Method: To test whether HBP, HMP-1bP, and H1b-ADP were able to induce cytokine expression in an ALPK1 dependent manner, we used an ALPK1-directed small interfering RNA (siRNA) to silence ALPK1 expression in HEK293 cells. Cells were plated (1×10^4 cells/well) into 96-well plates and transfected with either control siRNA or ALPK1-directed siRNA according to the manufacturer's protocols (Lipofectamine™ RNAiMax™, Invitrogen 13778075). Following 2 days of culture, either (1) HBP (500 uM, 100 uM, 20 uM, FIG. 2A-2B) (2) HMP-1bP (500 uM, 100 uM, FIG. 3A-3B), (3) H1b-ADP (100 nM, 20 nM, 4 nM, 0.8 nM, FIG. 4A-4B) was added to culture medium and cells were harvested 4 hours later.

[1] = 4 hours, control vs ALPK1-directed siRNA

ALPK1, sequence (Q96QP1 whole entry): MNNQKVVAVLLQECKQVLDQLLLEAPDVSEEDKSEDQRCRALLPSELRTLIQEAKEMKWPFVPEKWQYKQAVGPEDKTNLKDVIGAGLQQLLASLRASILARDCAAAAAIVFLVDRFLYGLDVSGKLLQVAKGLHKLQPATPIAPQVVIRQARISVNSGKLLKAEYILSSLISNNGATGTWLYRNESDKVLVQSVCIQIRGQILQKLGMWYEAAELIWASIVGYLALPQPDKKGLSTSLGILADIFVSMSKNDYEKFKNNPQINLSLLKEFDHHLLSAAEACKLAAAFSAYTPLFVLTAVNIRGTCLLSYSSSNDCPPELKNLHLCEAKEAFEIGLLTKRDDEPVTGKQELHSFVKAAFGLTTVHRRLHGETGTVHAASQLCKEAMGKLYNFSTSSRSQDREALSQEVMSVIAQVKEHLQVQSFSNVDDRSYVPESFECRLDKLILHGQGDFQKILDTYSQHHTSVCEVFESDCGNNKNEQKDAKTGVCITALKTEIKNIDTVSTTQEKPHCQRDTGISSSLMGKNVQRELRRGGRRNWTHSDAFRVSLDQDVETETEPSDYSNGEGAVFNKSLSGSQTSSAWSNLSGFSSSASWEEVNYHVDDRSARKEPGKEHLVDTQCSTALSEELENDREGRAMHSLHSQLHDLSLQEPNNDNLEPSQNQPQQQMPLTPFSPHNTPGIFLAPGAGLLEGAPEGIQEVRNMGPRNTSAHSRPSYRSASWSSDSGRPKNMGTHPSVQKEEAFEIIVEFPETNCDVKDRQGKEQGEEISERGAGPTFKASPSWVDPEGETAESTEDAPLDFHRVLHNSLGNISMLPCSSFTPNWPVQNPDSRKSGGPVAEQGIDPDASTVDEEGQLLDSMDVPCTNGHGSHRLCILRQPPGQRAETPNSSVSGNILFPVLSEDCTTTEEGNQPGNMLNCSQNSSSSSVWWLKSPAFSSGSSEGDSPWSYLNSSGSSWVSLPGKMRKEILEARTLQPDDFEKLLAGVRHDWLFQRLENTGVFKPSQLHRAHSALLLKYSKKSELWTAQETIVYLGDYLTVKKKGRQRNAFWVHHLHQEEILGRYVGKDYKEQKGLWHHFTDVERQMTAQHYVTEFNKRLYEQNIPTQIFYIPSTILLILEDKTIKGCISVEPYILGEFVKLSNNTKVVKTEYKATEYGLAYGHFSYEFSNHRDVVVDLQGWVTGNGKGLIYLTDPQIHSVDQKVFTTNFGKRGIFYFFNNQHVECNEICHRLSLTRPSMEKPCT

In the case of `Nc1ncnc2c1ncn2[C@@H]1O[C@H](COP(=O)(O)OP(=O)(O)O[C@@H]2O[C@H]([C@H](O)CO)[C@@H](O)[C@H](O)[C@@H]2O)[C@@H](O)[C@H]1O` [Compound H1b-ADP, D-glycero-D-manno-heptose-1β-ADP], the “IL-8 mRNA expression” value [1] was “increased in an ALPK1-dependent manner”, the “TNFα mRNA expression” value [1] was “increased in an ALPK1-dependent manner” and the “concentration at which IL-8 and TNFα mRNA expression were induced” value (FIG. 5) was 10 nM.
